The subject of one series is E. faecium 1 230 933. The series can be described thus: microbe, parasite or virus in culture. The settings on record: peptide alone, without vancomycin; VanA. It is filed as cell-based, Enterococcus faecium.
For another series, the system named is S. aureus 16038 (VISA). Nature of the series: microbe, parasite or virus in culture. Type of series: cell-based, Staphylococcus aureus. As to conditions: peptide alone, without vancomycin; van-.
The test system of a further series is E. faecalis merz96. Nature of the series: microbe, parasite or virus in culture. It is filed as cell-based, Enterococcus faecalis. As to conditions: peptide alone, without vancomycin; VanB.
Another series relates to E. faecalis V583 ΔvanB. Nature of the series: microbe, parasite or virus in culture. It is filed as cell-based, Enterococcus faecalis. The settings on record: peptide alone, without vancomycin; van-.
In another series the test system is E. faecium 1 231 502. Nature of the series: microbe, parasite or virus in culture. The settings on record: peptide alone, without vancomycin; VanA. Type of series: cell-based, Enterococcus faecium.
Series [1] concerns the target T1, VanS^127-384 (Enterococcus faecium, UniProt Q06240).
T1 construct: only the C-terminal His6-tagged VanA-type VanS^127-384 could be obtained as a soluble protein; made in house; host or cells: E. coli BL21(DE3), plasmid pET29b(+) vanS^127-384
The series can be described thus: biochemical. It is filed as binding.

For another series, the system named is E. faecalis JH2-2 08048. Nature of the series: microbe, parasite or virus in culture. Type of series: cell-based, Enterococcus faecalis. As to conditions: peptide alone, without vancomycin; VanB. As for the experimental part:
(§1) The MIC of vancomycin was determined by the microdilution method described in the guidelines of the European Committee on Antimicrobial Susceptibility Testing (EUCAST 2024, v14.0 Breakpoint Tables).[58] For enterococci, GM17 medium was used instead of CAMH medium since enterococci cannot degrade starch, the main carbohydrate of MH medium. 2-fold serial dilutions of the tested antibiotic were performed to obtain concentrations ranging from 0.5 to 512 μg/mL. LP were then added to the wells at the desired concentration. The medium was inoculated with a final inoculum of 5 × 10^5 CFU/mL. The MIC is the lowest concentration that prevents visible in vitro growth.

Another series concerns E. faecalis HIP11704. Nature of the series: microbe, parasite or virus in culture. It is filed as cell-based, Enterococcus faecalis. The settings on record: peptide alone, without vancomycin; VanA.
The subject of another series is E. faecalis V583. Nature of the series: microbe, parasite or virus in culture. Type of series: cell-based, Enterococcus faecalis. As to conditions: peptide alone, without vancomycin; VanB.
In series [2] the test system is VanB- or VanA-type strains. The settings on record: same among the different VanB- or VanA-type strains. As for the experimental part:
as §1

The next series has as its system E. faecium 1 231 410. The series can be described thus: microbe, parasite or virus in culture. It is filed as cell-based, Enterococcus faecium. The settings on record: peptide alone, without vancomycin; VanA.
The target in series [3] is T2, VanS^127-384 (VanA-type, C-His6) (Enterococcus faecium, UniProt Q06240).
T2 construct: only the C-terminal His6-tagged VanA-type VanS^127-384 could be obtained as a soluble protein; made in house; host or cells: E. coli BL21(DE3), plasmid pET29b(+) vanS^127-384
The series can be described thus: biochemical. As for the experimental part:
(§2) Terrific medium[68] […] The culture was incubated at 37°C with agitation at 180 rpm. Induction of protein expression was achieved by adding IPTG to a final concentration of 0.1 mM when the bacterial density reached an OD600 of 0.5. The culture was then incubated for 20 h at 25°C with agitation at 180 rpm. The cells were then washed twice in purification buffer (20 mM sodium phosphate buffer, 500 mM NaCl, 5 mM MgCl2, 10 mM imidazole (pH 7.4)). Cells were treated with lysozyme at 1 mg/mL final concentration for 30 min at 4°C and lysed by sonication with the Fisherbrand Model 120 Sonic Dismembrator (Fisher scientific, USA). The total fraction recovered was centrifuged at 10000 rpm at 4°C for 30 to 45 min and only the supernatant, representing the soluble fraction, was recovered for purification.
(§3) Protein purification was carried out on a HisTrap FF Crude 5 mL column (Cytiva, USA) using the ÄKTA start device (Cytiva, USA), following the manufacturer’s recommendations. […] Protein concentration was determined with the Pierce BCA Protein Assay Kit (Thermo Scientific, USA) according to the manufacturer’s recommendations and then stored at −80°C.
(§4) The phosphorylation assay followed reported procedure with some modifications.[38] […] The reaction was allowed to start by adding ATP and NADH, and monitored continuously at 340 nm at 37°C by a microplate reader (POLARstar OMEGA, BMG Labtech, Germany). […]

Series [4] concerns all tested E. faecalis and E. faecium strains. The series can be described thus: Growth inhibition / MIC, strain panel. Type of series: cell-based. The settings on record: peptide alone.
The subject of the next series is S. aureus T-SAR12 VRSA.A. Nature of the series: microbe, parasite or virus in culture. As to conditions: peptide alone, without vancomycin; VanA. Type of series: cell-based, Staphylococcus aureus. The procedure: as §1
For the next series, the system named is S. aureus T-SAR12 VRSA.B. The series can be described thus: microbe, parasite or virus in culture. Type of series: cell-based, Staphylococcus aureus. As to conditions: peptide alone, without vancomycin; VanB. The procedure: as §1
Series [5] concerns the target T3, VanS^127-384 (Enterococcus faecium, UniProt Q06240).
T3 construct: only the C-terminal His6-tagged VanA-type VanS^127-384 could be obtained as a soluble protein; made in house; host or cells: E. coli BL21(DE3), plasmid pET29b(+) vanS^127-384
T3 sequence (Q06240 whole entry, looked up): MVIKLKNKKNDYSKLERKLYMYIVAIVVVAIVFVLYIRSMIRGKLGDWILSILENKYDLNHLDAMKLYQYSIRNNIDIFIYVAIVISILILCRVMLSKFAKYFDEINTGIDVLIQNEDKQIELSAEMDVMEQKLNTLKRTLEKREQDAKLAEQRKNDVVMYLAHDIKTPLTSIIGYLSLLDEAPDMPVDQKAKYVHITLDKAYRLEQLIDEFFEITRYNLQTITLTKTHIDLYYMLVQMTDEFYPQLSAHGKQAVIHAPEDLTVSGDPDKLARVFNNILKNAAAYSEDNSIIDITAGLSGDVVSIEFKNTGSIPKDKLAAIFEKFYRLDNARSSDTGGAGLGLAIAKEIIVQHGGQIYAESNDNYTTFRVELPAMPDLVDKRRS
The series can be described thus: biochemical. Type of series: binding. As to conditions: 10 μM VanS, pH 7.5; siamycin I 6 to 90 μM; sviceucin 12 to 180 μM; microcin J25 25 to 200 μM.
Description: Protein purification was carried out on a HisTrap FF Crude 5 mL column (Cytiva, USA) using the ÄKTA start device (Cytiva, USA), following the manufacturer’s recommendations. The column was equilibrated with the purification buffer and then loaded with the soluble fraction. The protein of interest was washed and eluted with an imidazole gradient of 10 mM–500 mM in purification buffer. The purified protein was desalted and concentrated on a Vivaspin 6 30 kDa MWCO column (Cytiva, USA) according to the manufacturer’s recommendations. Protein concentration was determined with the Pierce BCA Protein Assay Kit (Thermo Scientific, USA) according to the manufacturer’s recommendations and then stored at −80°C.
All the experiments were performed in 96 Fast PCR Plates full skirt (Sarstedt, Germany) and in CFX96 Real-Time PCR system (BioRad, USA). Screening was conducted (Table S7) to determine the best buffer and ratios of protein and SYPRO Orange Protein Gel Stain (Sigma-Aldrich, USA). […] The Tm of each well was determined on the Melt Curve panel with a negative peak type. Tm means were calculated for each condition before model analysis. ΔT was calculated from the subtraction of the Tm of the protein with the buffer alone and the Tm with the lasso peptides. […]

For series [6], the target named is T4, VanS^127-384 (VanA-type, C-His6) (Enterococcus faecium, UniProt Q06240).
T4 construct: only the C-terminal His6-tagged VanA-type VanS^127-384 could be obtained as a soluble protein; made in house; host or cells: E. coli BL21(DE3), plasmid pET29b(+) vanS^127-384
T4 sequence (Q06240 whole entry, looked up): T3 sequence (Q06240 whole entry, looked up)
The series can be described thus: biochemical. As to conditions: 0–100 μM peptide. As for the experimental part:
as §2, §3, §4

The subject of series [7] is Galleria mellonella larvae. Nature of the series: Toxicity toward larvae. As to conditions: siamycin I-loaded nanoemulsion, about 18 mg/kg, 90 min and 24 h, observed to 96 h. Type of series: in vivo.
Description: Larvae were infected with the wild-type strain E. faecalis V583, the isogenic vancomycin-sensitive mutant V583 ΔvanB, or an equivalent volume of saline solution. At t90min and t24h post-infection (p.i.), the larvae were treated with the nanoemulsion alone (referred to as formulation), the nanoemulsion loaded with siamycin I (3.92 μg/larvae; about 18 mg/kg), vancomycin (1 μg/larvae; about 4.6 mg/kg) alone, or a combination of both. Larvae survival was assessed, and statistical analysis was performed at the endpoint t96h.
To assess the C1LPs' efficacy as treatment of E. faecalis infection, the strains V583 or V583 ΔvanB were grown without previous C1LP exposition. 20 larvae were used for each condition. At 1.5 and 24 h p.i., larvae were injected with 4.76 mg of vancomycin per kilogram and/or 18 mg of siamycin I per kilogram, or the equivalent volume of nanoemulsion as a control. Larvae killing was then monitored between 1.5 and 96 h p.i.. Data and statistical analysis were performed using the Kaplan-Meier R package and the log -rank test, respectively.

Converted amounts (≈) assume the structure as drawn. Positions of bridges follow the written chain, without caps; N, C: chain ends. Residues, ends and D or L forms follow the SMILES beside them. No end group written: not given here.

Usually Kd stands for a measure of binding affinity in units of concentration. The term IC50 denotes the concentration needed to halve the response being measured. For `CC[C@H](C)[C@@H]1NC(=O)[C@H](Cc2c[nH]c3ccccc23)NC(=O)[C@H](C)NC(=O)[C@H]([C@@H](C)O)NC(=O)CNC(=O)[C@@H]2CSSC[C@@H]3NC(=O)C[C@H](NC(=O)[C@H]([C@@H](C)O)NC(=O)[C@H](CSSC[C@@H](C(=O)N[C@H](C(=O)O)C(C)C)NC1=O)NC(=O)[C@H](CC(=O)O)NC(=O)CNC(=O)CNC(=O)[C@H](Cc1c[nH]c4ccccc14)NC(=O)[C@H](C(C)C)NC3=O)C(=O)N[C@@H](Cc1ccccc1)C(=O)N[C@@H](CC(C)C)C(=O)NCC(=O)N2` [Sviceucin] (CVWGGDCTDFLGCGTAWICV-OH; disulfide 1-13, 7-19; lactam N-9), the “Lasso peptide MIC” value with E. faecium 1 230 933, in the series on S. aureus 16038 (VISA), with E. faecalis merz96, with E. faecalis V583 ΔvanB, with E. faecium 1 231 502 and in the series with E. faecalis JH2-2 08048 was >10 µM in each case. In addition, the “Lasso peptide MIC” value in the series with E. faecalis HIP11704, in the series on E. faecalis V583, in the series on E. faecium 1 231 410, with S. aureus T-SAR12 VRSA.A and in the series on S. aureus T-SAR12 VRSA.B was >10 µM in each case. The molecule further registered a Kd at VanS^127-384 [1] of 52 ± 1.6 µM. The “MIC of peptide in absence of vancomycin” value in series [2] was > 10 µM. Half-maximal inhibition in series [3] (IC50) required 10.8 ± 1.5 µM. The “MIC, complete growth inhibition” value in series [4] is “above 10 μM”.
For the molecule “Microcin J25: unrelated lasso peptide microcin J25 (GGAGHVPEYFVGIGTPISFYG; not fully specified)”, the “effect on melting temperature (Tm) of VanS^127-384, in words” value with VanS^127-384 [5] is recorded as “did not affect the Tm of VanS^127-384”. Besides, the “effect on VanS^127-384 autophosphorylation, in words” value in series [6] is recorded as “had no effect on VanS^127-384”.
For the molecule `CC[C@H](C)[C@@H]1NC(=O)[C@H](C)NC(=O)[C@H](Cc2ccc(O)cc2)NC(=O)CNC(=O)[C@@H]2CSSC[C@@H]3NC(=O)C[C@H](NC(=O)[C@H](CC(N)=O)NC(=O)[C@H](CSSC[C@@H](C(=O)N[C@@H](Cc4ccccc4)C(=O)N[C@@H](Cc4c[nH]c5ccccc45)C(=O)O)NC(=O)[C@H](C(C)C)NC1=O)NC(=O)[C@H](CO)NC(=O)CNC(=O)[C@H](C(C)C)NC(=O)CNC(=O)[C@H](CC(C)C)NC3=O)C(=O)N[C@@H](Cc1ccccc1)C(=O)N[C@@H](C)C(=O)NCC(=O)N2` [Siamycin I] (CLGVGSCNDFAGCGYAIVCFW-OH; disulfide 1-13, 7-19; lactam N-9), the “Lasso peptide MIC” value in the series with E. faecium 1 230 933, with S. aureus 16038 (VISA), in the series with E. faecalis merz96, in the series with E. faecalis V583 ΔvanB, in the series on E. faecium 1 231 502 and with E. faecalis JH2-2 08048 was 5 µM throughout. Also, the “Lasso peptide MIC” value in the series with E. faecalis HIP11704, in the series on E. faecalis V583, in the series with E. faecium 1 231 410, with S. aureus T-SAR12 VRSA.A and in the series with S. aureus T-SAR12 VRSA.B was 5 µM throughout. For the same molecule, on VanS^127-384 [1], the Kd came to 38 ± 1 µM. The “toxicity toward the larvae” value in series [7] was “did not exhibit toxicity toward the larvae”. In [2], the “MIC of peptide in absence of vancomycin” value came to 5 µM. Besides, in [4], the “MIC, complete growth inhibition” value turned out to be 5 µM (≈ 10.8 µg/mL).

These data come from article PMC11872507, “Lasso peptides sviceucin and siamycin I exhibit anti-virulence activity and restore vancomycin effectiveness in vancomycin-resistant pathogens” (iScience, 2025).
